For 38 compounds, MIC results are on record in patent US12234238B2, “Antimicrobial compounds and methods of making and using the same” (BIOVERSYS AG, priority 2017, dated 2025).

A value given as a limit tells only on which side of the number the result lay.

For test [1], the system named is Eschericia coli (E. coli) strain ATCC25922. The test can be described thus: standard microdilution assay to determine minimum inhibitory concentrations (MICs), E. coli. In kind it is cell-based. As to conditions: Escherichia coli. On the procedure:
(§1) The in vitro activity of the compounds of the present disclosure can be determined. Antimicrobial testing is typically performed to determine the minimum inhibitory concentration (MIC). Minimum inhibitory concentrations (MICs) are determined by the microdilution method in a final volume of 100 μl according to protocols outlined by The Clinical and Laboratory Standards Institute (CLSI). Performance standards for reference strains are assessed within the same experimental design to maintain quality control. See, for example, Clinical Laboratory Standards Institute: Methods for dilution antimicrobial susceptibility tests for bacteria that grow aerobically M7-A8. Approved Standard-Eighth Edition. Wayne, PA: CLSI; December 2008: and Clinical Laboratory Standards Institute: Performance Standards for Antimicrobial Susceptibility Testing M100-S20; Approved Standard-Twentieth Edition. Wayne, PA: CLSI; June 2010. The compounds of the present disclosure were tested for antimicrobial activity. The Compounds 1-122 were run against Eschericia coli (E. coli) strain ATCC25922 and against Staphylococcus aureus (S. aureus) 11540 strain using a standard microdilution assay to determine minimum inhibitory concentrations (MICs). […] It will be recognized by one skilled in the art that the compounds can be assessed against other bacterial organisms and that the presentation of data for activity against Eschericia coli and Staphylococcus aureus are illustrative and in no way is intended to limit the scope of the present disclosure. The compounds of the present disclosure can be assayed against a range of other microorganisms depending upon the performance activity desired to be gathered. Furthermore, the “+” and “−” representation and the selection of a cutoff value of 16 micrograms/mL is also illustrative and in no way is intended to limit the scope of the present disclosure.

Test [2] has as its system Staphylococcus aureus (S. aureus) 11540 strain. Description: standard microdilution assay to determine minimum inhibitory concentrations (MICs), S. aureus. In kind it is cell-based. As to the method: as §1

On to `CO[C@@H]1CC(c2cc3cn(-c4ccc([C@@H]5CCC[C@@H](CCSC(=N)N)N5)cc4)c(=O)nc3[nH]2)N(CCC[C@H](C)N)C1` (stereo partly shown) [Compound 57], for which the MIC in test [1] and in test [2] was at most 16 µg/mL each time.

With `CC(Br)CCN1[C@H](CCSC(=N)N)CCC[C@H]1c1ccc(-n2cc3cc(-c4cc(CCC[C@H](C)N)cc(Cl)c4F)[nH]c3nc2=O)cc1` (stereo partly shown) [Compound 95], the MIC in test [1] and in test [2] was at most 16 µg/mL throughout.

Consider `N[C@H](CCCc1cc(Cl)c(F)c(-c2cc3cn(-c4ccc([C@@H]5CCC[C@@H](CCSC6=NCCN6)N5)cc4)c(=O)nc3[nH]2)c1)C1CC1` [Compound 3], for which the MIC in test [1] and in test [2] was at most 16 µg/mL in each case.

With `C[C@H](N)CCCc1cc(-c2cc3cn(-c4ccc([C@@H]5CCC[C@@H](CCSC(=N)N)N5)cc4)c(=O)nc3[nH]2)cc(C(C)(F)F)c1` [Compound 89], the minimum inhibitory concentration (MIC) in test [1] and in test [2] was at most 16 µg/mL in each case.

On to `N=C(N)SCC[C@@H]1CCC[C@@H](c2ccc(-n3cc4cc(C5C[C@@H](N)CN5)[nH]c4nc3=O)cc2)N1` (stereo partly shown) [Compound 88], for which the MIC in test [1] and in test [2] was at most 16 µg/mL each time.

With `C=C[C@H](N)CCCc1cc(Cl)c(F)c(-c2cc3cn(-c4ccc([C@@H]5CCC[C@@H](CCSC(=N)N)N5)c(F)c4)c(=O)nc3[nH]2)c1` [Compound 36], the MIC in test [1] and in test [2] was at most 16 µg/mL throughout.

For `N=C(N)SCCCN1CCCC[C@H]1c1ccc(-n2cc3cc(-c4cc(CCC[C@@H](N)C5CC5)cc(Cl)c4F)[nH]c3nc2=O)cc1` [Compound 13], the MIC in test [1] and in test [2] was at most 16 µg/mL each time.

As for `CCSC(=N)NCC[C@@H]1CCC[C@@H](c2ccc(-n3cc4cc(-c5cc(CCC[C@H](C)N)cc(Cl)c5F)[nH]c4nc3=O)cc2)N1` [Compound 118], the MIC in test [1] and in test [2] was at most 16 µg/mL each time.

On to `CCc1cc(CCC[C@H](C)N)cc(-c2cc3cn(-c4ccc([C@@H]5CCC[C@@H](CCSC(=N)N)N5)cc4)c(=O)nc3[nH]2)c1F` [Compound 85], for which the MIC in test [1] and in test [2] was at most 16 µg/mL each time.

With `CC(N)c1cc(Cl)c(F)c(-c2cc3cn(-c4ccc([C@@H]5CCC[C@@H](CCSC(=N)N)N5)cc4)c(=O)nc3[nH]2)c1` (stereo partly shown) [Compound 54], the MIC in test [1] and in test [2] was at most 16 µg/mL each time.

On to `C[C@H](N)CCCc1cc(-c2cc3cn(-c4ccc([C@@H]5CCC[C@@H](CCSC(=N)N)N5)cc4)c(=O)nc3[nH]2)cc(C2CC2)c1` [Compound 99], for which the minimal inhibitory concentration (MIC) in test [1] and in test [2] was at most 16 µg/mL throughout.

For `C[C@H](N)CCCc1cc(Cl)c(F)c(-c2cc3cn(-c4ccc([C@H](C)NCCCSC(=N)N)cc4)c(=O)nc3[nH]2)c1` [Compound 9], the MIC in test [1] and in test [2] was at most 16 µg/mL in each case.

Take `N=C(N)SCC[C@@H]1CCC[C@@H](c2ccc(-n3cc4cc(-c5cc(CCC[C@@H](N)C6CC6)cc(Cl)c5F)[nH]c4nc3=O)cc2)N1CCCO` [Compound 7]: the MIC in test [1] and in test [2] was at most 16 µg/mL each time.

With `C[C@H](N)CCCc1cc(Cl)c(F)c(-c2cc3cn(-c4ccc([C@@H]5CCC[C@@H](CCSC(=N)N)N5CCC5CCOCC5)cc4)c(=O)nc3[nH]2)c1` [Compound 102], the MIC in test [1] and in test [2] was at most 16 µg/mL throughout.

For `C[C@H](N)CCCc1cc(Cl)c(F)c(-c2cc3cn(-c4ccc([C@@H]5CCC[C@@H](CCSC6=NCCN6)N5)cc4)c(=O)nc3[nH]2)c1` [Compound 2], the MIC in test [1] and in test [2] was at most 16 µg/mL each time.

In the case of `C[C@H](N)CCCc1cc(Cl)c(F)c(-c2cc3cn(-c4ccc([C@@H]5CC=CCN5CCCSC(=N)N)cc4)c(=O)nc3[nH]2)c1` [Compound 14], the minimal inhibitory concentration (MIC) in test [1] and in test [2] was at most 16 µg/mL each time.

Take `COC[C@H](N)CCCc1cc(Cl)c(F)c(-c2cc3cn(-c4ccc([C@@H]5CCC[C@@H](CCSC(=N)N)N5)cc4)c(=O)nc3[nH]2)c1` [Compound 80]: the MIC in test [1] and in test [2] was at most 16 µg/mL each time.

For `C[C@H]1CC(c2cc3cn(-c4ccc([C@@H]5CCC[C@@H](CCSC(=N)N)N5)cc4)c(=O)nc3[nH]2)N(CCC[C@@H](C)N)C1` (stereo partly shown) [Compound 67], the MIC in test [1] and in test [2] was at most 16 µg/mL throughout.

Take `N=C(N)SCCCN1CC=CC[C@H]1c1ccc(-n2cc3cc(-c4cc(CCC[C@@H](N)C5CC5)cc(Cl)c4F)[nH]c3nc2=O)cc1` [Compound 15]: the MIC in test [1] and in test [2] was at most 16 µg/mL each time.

On to `C[C@H](N)CCCc1cc(Cl)c(F)c(-c2cc3cn(-c4ccc([C@@H]5CCC[C@@H](CCSC(=N)N)N5CCCSC(=N)N)cc4)c(=O)nc3[nH]2)c1` [Compound 19], for which the MIC in test [1] and in test [2] was at most 16 µg/mL throughout.

As to `C[C@H](N)CCCc1cc(Cl)c(F)c(-c2cc3cn(-c4ccc([C@@H]5CCC[C@@H](CCSC(=N)N)N5CCCF)cc4)c(=O)nc3[nH]2)c1` [Compound 4], the MIC in test [1] and in test [2] was at most 16 µg/mL throughout.

`CC(C)c1cc(CCC[C@H](C)N)cc(-c2cc3cn(-c4ccc([C@@H]5CCC[C@@H](CCSC(=N)N)N5)cc4)c(=O)nc3[nH]2)c1F` [Compound 84]: the MIC in test [1] and in test [2] was at most 16 µg/mL throughout.

With `C[C@H](N)CCCN1C(c2cc3cn(-c4ccc([C@@H]5CCC[C@@H](CCSC(=N)N)N5)cc4)c(=O)nc3[nH]2)C[C@@H]2CCCC[C@@H]21` (stereo partly shown) [Compound 62], the MIC in test [1] and in test [2] was at most 16 µg/mL each time.

With `N=C(N)SCCCN1[C@H](CCO)CCC[C@H]1c1ccc(-n2cc3cc(-c4cc(CCC[C@@H](N)C5CC5)cc(Cl)c4F)[nH]c3nc2=O)cc1` [Compound 18], the MIC in test [1] and in test [2] was at most 16 µg/mL each time.

On to `C[C@H](N)CCCN1CCC=C(c2cc3cn(-c4ccc([C@@H]5CCC[C@@H](CCSC(=N)N)N5)cc4)c(=O)nc3[nH]2)C1` [Compound 73], for which the MIC in test [1] and in test [2] was at most 16 µg/mL each time.

In the case of `CCc1cc(CCC[C@H](C)N)cc(-c2cc3cn(-c4ccc([C@@H]5CCC[C@@H](CCSC(=N)N)N5)cc4)c(=O)nc3[nH]2)c1Cl` [Compound 82], the MIC in test [1] and in test [2] was at most 16 µg/mL in each case.

For the compound `N=C(N)SCCCN1[C@H](CCSC(=N)N)CCC[C@H]1c1ccc(-n2cc3cc(-c4cc(CCC[C@@H](N)C5CC5)cc(Cl)c4F)[nH]c3nc2=O)cc1` [Compound 20], the MIC in test [1] and in test [2] was at most 16 µg/mL in each case.

Consider `C[C@H](N)CCCc1cc(Cl)c(F)c(-c2cc3cn(-c4ccc([C@H]5C[C@H](CCSC(=N)N)CCN5C)cc4)c(=O)nc3[nH]2)c1` [Compound 111], for which the MIC in test [1] and in test [2] was at most 16 µg/mL throughout.

In the case of `C[C@H](N)CCO[C@H]1CNC(c2cc3cn(-c4ccc([C@@H]5CCC[C@@H](CCSC(=N)N)N5)cc4)c(=O)nc3[nH]2)C1` (stereo partly shown) [Compound 47], the MIC in test [1] and in test [2] was at most 16 µg/mL throughout.

For the compound `C[C@H](NCCCSC(=N)N)c1ccc(-n2cc3cc(-c4cc(CCC[C@@H](N)C5CC5)cc(Cl)c4F)[nH]c3nc2=O)cc1` [Compound 27], the MIC in test [1] and in test [2] was at most 16 µg/mL each time.

Take `COc1ccc(OC[C@H](N)CCCc2cc(Cl)c(F)c(-c3cc4cn(-c5ccc([C@@H]6CCC[C@@H](CCSC(=N)N)N6)cc5)c(=O)nc4[nH]3)c2)cc1` [Compound 39]: the MIC in test [1] and in test [2] was at most 16 µg/mL throughout.

For `CC(C)SC(=N)NCC[C@@H]1CCC[C@@H](c2ccc(-n3cc4cc(-c5cc(CCC[C@H](C)N)cc(Cl)c5F)[nH]c4nc3=O)cc2)N1` [Compound 119], the MIC in test [1] and in test [2] was at most 16 µg/mL throughout.

`C[C@@H](N)CCCN1C[C@H](N)CC1c1cc2cn(-c3ccc([C@@H]4CCC[C@@H](CCSC(=N)N)N4)cc3)c(=O)nc2[nH]1` (stereo partly shown) [Compound 65]: the MIC in test [1] and in test [2] was at most 16 µg/mL each time.

Take `C[C@H](N)CCCN1C(c2cc3cn(-c4ccc([C@@H]5CCC[C@@H](CCSC(=N)N)N5)cc4)c(=O)nc3[nH]2)C[C@H]2CCCC[C@@H]21` (stereo partly shown) [Compound 53]: the MIC in test [1] and in test [2] was at most 16 µg/mL throughout.

For `C[C@H](N)CCCc1cc(-c2cc3cn(-c4ccc([C@@H]5CCC[C@@H](CCSC(=N)N)N5)cc4)c(=O)nc3[nH]2)cc(C(C)(C)C)c1` [Compound 86], the MIC in test [1] and in test [2] was at most 16 µg/mL throughout.

With `CCCN1[C@H](CCSC(=N)N)CCC[C@H]1c1ccc(-n2cc3cc(-c4cc(CCC[C@H](C)N)cc(Cl)c4F)[nH]c3nc2=O)cc1` [Compound 56], the MIC in test [1] and in test [2] was at most 16 µg/mL each time.

For `C[C@@H](CO)CN1[C@H](CCSC(=N)N)CCC[C@H]1c1ccc(-n2cc3cc(-c4cc(CCC[C@H](C)N)cc(Cl)c4F)[nH]c3nc2=O)cc1` [Compound 101], the MIC in test [1] and in test [2] was at most 16 µg/mL each time.

As to `C[C@H](N)CCCc1cc(Cl)c(F)c(-c2cc3cn(-c4ccc([C@@H]5CCC(O)[C@@H](CCSC(=N)N)N5C)cc4)c(=O)nc3[nH]2)c1` (stereo partly shown) [Compound 106], the MIC in test [1] and in test [2] was at most 16 µg/mL each time.
